Experimental data as given in PubChem BioAssay (NCI).
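Test compounds were applied to cells in 96-well plates for 48 hours at 5 doses. TGI denotes the concentration required for complete inhibition of growth.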

Experiments:
Experiment in all cases: NCI-60 cell line screen, 48 h
786-0 renal = test system: 786-0 renal
A498 renal = test system: A498 renal
A549 NSCLC = test system: A549 NSCLC
ACHN renal = test system: ACHN renal
CAKI-1 renal = test system: CAKI-1 renal
CCRF-CEM leukemia = test system: CCRF-CEM leukemia
COLO 205 colon = test system: COLO 205 colon
DLD-1 colon = test system: DLD-1 colon
DMS 114 small cell lung = test system: DMS 114 small cell lung
EKVX NSCLC = test system: EKVX NSCLC
HCC-2998 colon = test system: HCC-2998 colon
HCT-116 colon = test system: HCT-116 colon
HCT-15 colon = test system: HCT-15 colon
HL-60(TB) leukemia = test system: HL-60(TB) leukemia
HOP-18 NSCLC = test system: HOP-18 NSCLC
HOP-62 NSCLC = test system: HOP-62 NSCLC
HOP-92 NSCLC = test system: HOP-92 NSCLC
HT29 colon = test system: HT29 colon
IGROV1 ovarian = test system: IGROV1 ovarian
K-562 leukemia = test system: K-562 leukemia
KM12 colon = test system: KM12 colon
KM20L2 colon = test system: KM20L2 colon
LOX IMVI melanoma = test system: LOX IMVI melanoma
LXFL 529 NSCLC = test system: LXFL 529 NSCLC
M14 melanoma = test system: M14 melanoma
M19-MEL melanoma = test system: M19-MEL melanoma
MALME-3M melanoma = test system: MALME-3M melanoma
MOLT-4 leukemia = test system: MOLT-4 leukemia
NCI-H226 lung = test system: NCI-H226 lung
NCI-H23 lung = test system: NCI-H23 lung
NCI-H460 lung = test system: NCI-H460 lung
OVCAR-3 ovarian = test system: OVCAR-3 ovarian
OVCAR-4 ovarian = test system: OVCAR-4 ovarian
OVCAR-5 ovarian = test system: OVCAR-5 ovarian
OVCAR-8 ovarian = test system: OVCAR-8 ovarian
RPMI-8226 leukemia = test system: RPMI-8226 leukemia
RXF 393 renal = test system: RXF 393 renal
SF-295 CNS = test system: SF-295 CNS
SF-539 CNS = test system: SF-539 CNS
SK-MEL-2 melanoma = test system: SK-MEL-2 melanoma
SK-MEL-5 melanoma = test system: SK-MEL-5 melanoma
SK-OV-3 ovarian = test system: SK-OV-3 ovarian
SN12C renal = test system: SN12C renal
SNB-19 CNS = test system: SNB-19 CNS
SNB-75 CNS = test system: SNB-75 CNS
SNB-78 CNS = test system: SNB-78 CNS
SW-620 colon = test system: SW-620 colon
TK-10 renal = test system: TK-10 renal
U251 CNS = test system: U251 CNS
UACC-257 melanoma = test system: UACC-257 melanoma
UACC-62 melanoma = test system: UACC-62 melanoma
UO-31 renal = test system: UO-31 renal
XF 498 CNS = test system: XF 498 CNS

Question: Which results are given for `COc1nc(NC2OC(COC(C)=O)C(OC(C)=O)C(OC(C)=O)C2OC(C)=O)c2c(OC(C)=O)c(C)c(=O)oc2n1` (stereo not drawn)?
Answer: TGI (786-0 renal): > 100 µM; TGI (A498 renal): 3.18 µM; TGI (A549 NSCLC): > 100 µM; TGI (ACHN renal): 3.16 µM; TGI (CAKI-1 renal): > 100 µM; TGI (CCRF-CEM leukemia): > 100 µM; TGI (COLO 205 colon): > 100 µM; TGI (DLD-1 colon): > 100 µM; TGI (DMS 114 small cell lung): > 100 µM; TGI (EKVX NSCLC): > 100 µM; TGI (HCC-2998 colon): > 100 µM; TGI (HCT-116 colon): > 100 µM; TGI (HCT-15 colon): > 100 µM; TGI (HL-60(TB) leukemia): > 100 µM; TGI (HOP-18 NSCLC): > 100 µM; TGI (HOP-62 NSCLC): > 100 µM; TGI (HOP-92 NSCLC): > 100 µM; TGI (HT29 colon): > 100 µM; TGI (IGROV1 ovarian): > 100 µM; TGI (K-562 leukemia): > 100 µM; TGI (KM12 colon): > 100 µM; TGI (KM20L2 colon): > 100 µM; TGI (LOX IMVI melanoma): > 100 µM; TGI (LXFL 529 NSCLC): > 100 µM; TGI (M14 melanoma): > 100 µM; TGI (M19-MEL melanoma): > 100 µM; TGI (MALME-3M melanoma): > 100 µM; TGI (MOLT-4 leukemia): > 100 µM; TGI (NCI-H226 lung): > 100 µM; TGI (NCI-H23 lung): > 100 µM; TGI (NCI-H460 lung): 3.15 µM; TGI (OVCAR-3 ovarian): > 100 µM; TGI (OVCAR-4 ovarian): > 100 µM; TGI (OVCAR-5 ovarian): > 100 µM; TGI (OVCAR-8 ovarian): > 100 µM; TGI (RPMI-8226 leukemia): > 100 µM; TGI (RXF 393 renal): > 100 µM; TGI (SF-295 CNS): > 100 µM; TGI (SF-539 CNS): > 100 µM; TGI (SK-MEL-2 melanoma): > 100 µM; TGI (SK-MEL-5 melanoma): > 100 µM; TGI (SK-OV-3 ovarian): > 100 µM; TGI (SN12C renal): > 100 µM; TGI (SNB-19 CNS): > 100 µM; TGI (SNB-75 CNS): > 100 µM; TGI (SNB-78 CNS): > 100 µM; TGI (SW-620 colon): > 100 µM; TGI (TK-10 renal): > 100 µM; TGI (U251 CNS): > 100 µM; TGI (UACC-257 melanoma): > 100 µM; TGI (UACC-62 melanoma): > 100 µM; TGI (UO-31 renal): > 100 µM; TGI (XF 498 CNS): > 100 µM
